Series [1] concerns the target T1, CYP17A1 (Homo sapiens, UniProt P05093).
T1 construct: immortalised human adrenal cells expressing CYP17A1 and other steroidogenic enzymes; endogenous in cells; host or cells: NCI-H295R (human adrenal cells)
T1 sequence (P05093 1-508): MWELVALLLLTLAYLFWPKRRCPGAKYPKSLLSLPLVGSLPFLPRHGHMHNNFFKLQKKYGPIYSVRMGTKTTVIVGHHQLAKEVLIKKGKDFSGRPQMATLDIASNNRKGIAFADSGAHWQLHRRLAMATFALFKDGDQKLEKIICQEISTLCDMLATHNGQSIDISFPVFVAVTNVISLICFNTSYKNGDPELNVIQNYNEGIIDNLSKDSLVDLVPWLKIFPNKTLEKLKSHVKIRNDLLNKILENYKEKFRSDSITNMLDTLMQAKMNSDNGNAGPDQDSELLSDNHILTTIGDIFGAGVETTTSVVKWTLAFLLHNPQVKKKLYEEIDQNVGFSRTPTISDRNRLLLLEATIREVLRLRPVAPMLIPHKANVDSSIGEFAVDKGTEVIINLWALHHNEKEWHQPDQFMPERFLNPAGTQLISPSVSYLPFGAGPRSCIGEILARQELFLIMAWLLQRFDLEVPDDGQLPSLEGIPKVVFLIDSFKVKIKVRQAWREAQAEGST
Briefly: CYP17A1 17α-hydroxylase activity assay in NCI-H295R cells ([14C]-progesterone, TLC). The settings on record: 4 h, DMSO = 100, read-out: CYP17A1 Hydroxylase activity, Mean (percentage of activity remaining relative to the control). It counts as cell-based. How it is done: (§1) Human adrenal NCI-H295R cells are an established model for assay of CYP17A1 activities. The NCI-H295R cells were seeded in 12-well plates at 500 000 cells per well and incubated overnight. On the following day, 10 µM of test compounds were added to the wells with fresh medium and incubated for 4 h. Abiraterone was used as a reference, and DMSO was included as a control. For assessing CYP17A1 hydroxylase activity, cells were treated with [^14C]-Progesterone at 10 000 cpm/1 µM per well. Trilostane was added prior to the test compounds and substrate to inhibit 3β-hydroxysteroid dehydrogenase activity so that a clean assay of only CYP17A1 activity could be performed[20]^,[27]^,[28]. Radiolabeled steroids were extracted from the media using a mixture of ethyl acetate and isooctane (1:1 v/v) and separated by Thin Layer Chromatography (TLC) on silica gel-coated aluminium plates (Supelco® Analytics, Sigma-Aldrich Chemie GmbH, Taufkirchen, Germany). TLC spots were visualised on a phosphor screen and detected by autoradiography using a Typhoon™ FLA-7000 PhosphorImager (GE Healthcare, Uppsala, Sweden). Radioactivity was quantified with ImageQuant™ TL analysis software (GE Healthcare Europe GmbH, Freiburg, Germany), and enzyme activity was expressed as the percentage of radioactivity incorporated into the product relative to the total radioactivity. For CYP17A1 lyase activity, cells were exposed to 50 000 cpm/1 µM [21-^3H]-17α-hydroxypregnenolone per well under similar conditions. The tritiated water release assay was used to measure the conversion of 17OH-Pregnenolone to DHEA. Steroids in the media were precipitated using a 5% activated charcoal/0.5% dextran solution. Enzyme activity was evaluated based on the water-soluble tritiated by-product formed in equimolar amounts with DHEA, with radioactivity in the aqueous phase quantified by liquid scintillation counting (MicroBeta2® Plate Counter, PerkinElmer Inc., Waltham, MA, USA). Percent inhibition was calculated relative to control samples.

The target of series [2] is T1, CYP17A1. Briefly: CYP17A1 17,20-lyase activity assay in NCI-H295R cells (tritiated water release). The settings on record: 4 h, DMSO = 100, read-out: CYP17A1 Lyase activity, Mean (percentage of activity remaining relative to the control). The series is classed as cell-based. How it is done: as §1
Series [3] relates to adrenal steroidogenesis in NCI-H295R cells. Briefly: Steroid profiling by LC-MS in NCI-H295R cells. The series is classed as cell-based, human. The settings on record: compounds at 10 µM. How it is done: (§2) Steroid quantification was performed using Liquid Chromatography–Mass Spectrometry (LC-MS), following established protocols to study effect of compounds on adrenal steroidogenesis. Human adrenal NCI-H295R cells were seeded in 12-well plates at 500 000 cells per well and treated with fresh growth medium containing the test compounds for 4 h. Subsequently, 1 µM pregnenolone was added and incubated for an additional 4 h. Steroids were extracted from 500 µL aliquots of cell media, separated, and quantified according to the referenced methodology.

In series [4] the target is T1, CYP17A1. Briefly: CYP17A1 activity calculated as ratios of steroid products to substrates (LC-MS). To be noted: normalised to DMSO-treated cells (100%), NCI-H295R. The series is classed as cell-based. The protocol: as §2
To provide deeper insights into CYP17A1 inhibition, the enzyme activity was calculated using ratios of steroid products to substrates, focusing on dual activities of CYP17A1 (Figure 4(B)).

Series [5] can be described thus: Alamar blue (resazurin) cell viability, RWPE-1. The series is classed as cell-based. To be noted: human, RWPE-1 cells, of the control. How it is done: (§3) LNCaP and RWPE-1 cells were plated in 96-well plates at 10 000 cells per well and incubated overnight at 37 °C with 5% CO2. VCaP cells were plated at 12 000 cells per well under the same conditions. After 24 h, the medium was replaced with fresh medium containing the compounds or abiraterone at a final concentration of 10 µM. Cells were incubated for an additional 24 and 48 h. Cell viability was measured using the Alamar Blue assay. Post-incubation, 0.05 mg/mL Alamar Blue solution in phosphate-buffered saline (PBS) was added to each well. The plates were incubated in the dark at 37 °C for 4 h, and fluorescence was measured at an excitation wavelength of 550 nm and an emission wavelength of 590 nm. Cell viability was calculated relative to control sample treated with DMSO. All experiments were conducted in triplicate.
(In general: Resazurin is reduced to fluorescent resorufin, in cell work by metabolically active cells.)

A further series has as its system VCaP cells. Briefly: Alamar blue (resazurin) cell viability, VCaP. The series is classed as cell-based, human. The settings on record: 10 µM, 24 and 48 h. The protocol:
as §3

Another series deals with LNCaP cells. Briefly: Alamar blue (resazurin) cell viability, LNCaP. It counts as cell-based, human. To be noted: 10 µM, 24 and 48 h. How it is done:
as §3

The next series has as its system DU-145 cells. Briefly: Scratch (wound healing) assay. The series is classed as cell-based, human. The settings on record: DU-145, 10 µM, 24 h; DMSO 170.5. How it is done: Human prostate cancer DU-145 cells show strong cell proliferation and therefore, are an established model for assay of antiproliferative effects of test compounds. DU-145 cells were plated in 24-well plates at 50 000 cells per well and grown until they reached 85% confluence. To inhibit cell proliferation, cells were treated with 5 µg/mL mitomycin for 2 h. A wound was created using a 10 µL pipette tip. The cells were then exposed to drugs at a concentration of 10 µM, while control wells received DMSO. Wound closure was observed and photographed using an optical microscope after 24 h. Images were analysed using ImageJ software (version 1.54j).

[6] abbreviates: not detected within the experimental timeframe, DMSO 0.

A word on the remaining activity: it is the signal under treatment as a percentage of the control signal. In general, viability refers to a read-out of living cells in per cent, often relative to untreated cells. A higher viability goes with better survival. For the molecule `C[C@]12CC[C@H](O)CC1=CC[C@@H]1[C@@H]2CC[C@]2(C)C(c3cccnc3)=CC[C@@H]12` [ABT, abiraterone, reference compound], the remaining activity at 10 µM at CYP17A1 [1] was 14%. Moreover, the remaining activity at 10 µM at CYP17A1 [2] amounted to 24%. The “Androsterone, Mean” value in series [3] (1 µM pregnenolone, DMSO 0) is given as 0 nmol/L. Moreover, in series [3] (1 µM pregnenolone, DMSO 0.4785), the “Testosterone, Mean” value is recorded as 0.5005 nmol/L. Further, the “Progesterone, Mean” value in series [3] (1 µM pregnenolone, DMSO 4.814) amounted to 3.809 nmol/L. Besides, the “Androstendione, Mean” value in series [3] (1 µM pregnenolone, DMSO 7.577) was 1.5465 nmol/L. Besides, the “17a-Hydroxyprogesterone, Mean” value in series [3] (1 µM pregnenolone, DMSO 9.967) was found to be 1.202 nmol/L. Also, in series [3] (1 µM pregnenolone, DMSO 15.119), the “DHEA, Mean” value worked out at 2.775 nmol/L. In addition, in series [3] (1 µM pregnenolone, DMSO 26.594), the “11-Deoxycortisol, Mean” value was found to be 3.585 nmol/L. The “11-Deoxycorticosterone, Mean” value in series [3] (1 µM pregnenolone, DMSO 28.1555) came to 2.6135 nmol/L. In addition, the “Pregnenolone, Mean” value in series [3] (1 µM pregnenolone, DMSO 2043.56) is reported as 2279.668 nmol/L. In addition, in series [3] (setting [6]), the “Cortisone, Mean” value came to 0 nmol/L; the “DHEA-S, Mean” value came to 0 nmol/L; the “Dihydrotestosterone, Mean” value is reported as 0 nmol/L. Also, at CYP17A1 [4], the “17α-Hydroxylase activity (ratios of steroid products to substrates)” value is listed as 15.2%; the “Combined 17α-hydroxylase and 17,20-lyase activity (ratios of steroid products to substrates)” value is about 16.3%. Besides, the viability at 24 h, 10 µM in series [5] (24 h) came to 84%. In addition, in series [5] (48 h), the viability at 48 h, 10 µM was found to be 66%. Besides, the “Cytotoxic effect on VCaP cells (in words)” value with VCaP cells is given as “notable reduction in cell viability”. In addition, the “Cytotoxic effect on LNCaP cells (in words)” value with LNCaP cells is on record as “notable reduction in cell viability”. Further, the “Wound area, Mean (area remaining open)” value in the series with DU-145 cells stood at 935 Pixels^2.

Source of the values: publication PMC11834790, “Pyridine indole hybrids as novel potent CYP17A1 inhibitors” (Journal of Enzyme Inhibition and Medicinal Chemistry, 2025).
